Positions of bridges follow the written chain, without caps; N, C: chain ends. Non-standard residues stand in square brackets, D forms with d. Residues, ends and D or L forms follow the SMILES beside them. *: point of attachment. DOTA = O=C(O)CN1CCN(CC(=O)O)CCN(CC(=O)*)CCN(CC(=O)O)CC1; dPhe(4-NHCONH2) = NC(=O)Nc1ccc(C[C@@H](N)C(=O)O)cc1; Butanoyl(4-(4-MeO-phenyl)) = COc1ccc(CCCC(=O)*)cc1; Butanoyl(4-(4-I-phenyl)) = O=C(CCCc1ccc(I)cc1)*; Dihydroorotyl(S) = O=C1C[C@@H](C(=O)*)NC(=O)N1; Phe(4-Cl) = N[C@@H](Cc1ccc(Cl)cc1)C(=O)O; Phe(4-NH2) = Nc1ccc(C[C@H](N)C(=O)O)cc1
Experiments:
[1] = system: mice bearing SSTR2-positive H69 xenografts; experiment: In vivo SPECT/CT imaging; conditions: H69 xenograft mice, i.v. 20 MBq/0.5 nmol, n = 4; for SPECT quantification, kidneys (K), 4 h: 4 h post-injection; for SPECT quantification, kidneys (K), 24 h: 24 h post-injection; for SPECT quantification, kidneys (K), 48 h: 48 h post-injection; for SPECT quantification, kidneys (K), 72 h: 72 h post-injection
[2] = In vivo SPECT/CT imaging; conditions: mouse, H69 xenograft tumor, iv, 20 MBq/0.5 nmol per animal, total radioactivity
[3] = Ex vivo biodistribution; conditions: mouse, iv, 0.5 nmol, total radioactivity
[4] = Determination of lipophilicity (LogD7.4, shake-flask); format: physicochemical; conditions: n-octanol/PBS (1:1), pH 7.4, PBS/n-octanol 1:1 (1 mL), ~1.5 MBq, gamma counter, n = 3 (triplicate), mean ± SEM, read-out: Log D7.4
Protocol: The distribution coefficient (LogD7.4) of the ^177Lu-labeled peptides was determined by the shake-flask method. For each radioligand, the experiment was performed in triplicate. The radiolabeled compound (~1.5 MBq) was added to a solution of phosphate buffered saline (PBS)/n-octanol (1 mL, v:v = 1:1) in eppendorf vials. The vials were vortexed vigorously and centrifuged at 10,000 rpm for 3 min. The n-octanol phase was separated from the aqueous phase, poured into new vials, and centrifuged for 15 min. Samples from each phase (10 μL) were measured using a gamma counter. The LogD7.4 value was calculated using the following equation: […].

[5] = Stability in PBS; format: physicochemical; conditions: % intact radiolabeled ligand, ~3 MBq in PBS (300 μL), 37 °C, radio-HPLC, n = 1
Protocol: (§1) The ^177Lu-labeled compounds (~3 MBq) were incubated in PBS (300 μL) at 37 °C. The stability of the radiolabeled peptides was verified by radio-HPLC at 1, 4, and 24 h. The stability in serum was determined by incubating the radiolabeled compounds (~3 MBq) into 150 μL of mouse serum (Merck; Haarlerbergweg, The Netherlands) at 37 °C. At 1, 4, and 24 h post-incubation, the proteins were precipitated by adding an aliquot of 35 μL of the mixture to an equal volume of ACN. The vial was vortexed and centrifuged for 20 min. stability was monitored by radio-HPLC (Figures S4 and S5).

[6] = Stability in mouse serum; format: in vitro ADME; conditions: % intact radiolabeled ligand, ~3 MBq in 150 μL mouse serum, 37 °C, ACN protein precipitation, radio-HPLC, n = 1
Protocol: as §1

[7] = target: human albumin (Homo sapiens, UniProt P02768); experiment: Albumin binding properties (ultrafiltration); conditions: ~1 MBq in human albumin/PBS (500 µL, v:v = 1:4), 1 h, 37 °C; Centrifree ultrafiltration 30 KDa; gamma counter; n = 3, mean ± SEM
Chain of human albumin (P02768 25-609): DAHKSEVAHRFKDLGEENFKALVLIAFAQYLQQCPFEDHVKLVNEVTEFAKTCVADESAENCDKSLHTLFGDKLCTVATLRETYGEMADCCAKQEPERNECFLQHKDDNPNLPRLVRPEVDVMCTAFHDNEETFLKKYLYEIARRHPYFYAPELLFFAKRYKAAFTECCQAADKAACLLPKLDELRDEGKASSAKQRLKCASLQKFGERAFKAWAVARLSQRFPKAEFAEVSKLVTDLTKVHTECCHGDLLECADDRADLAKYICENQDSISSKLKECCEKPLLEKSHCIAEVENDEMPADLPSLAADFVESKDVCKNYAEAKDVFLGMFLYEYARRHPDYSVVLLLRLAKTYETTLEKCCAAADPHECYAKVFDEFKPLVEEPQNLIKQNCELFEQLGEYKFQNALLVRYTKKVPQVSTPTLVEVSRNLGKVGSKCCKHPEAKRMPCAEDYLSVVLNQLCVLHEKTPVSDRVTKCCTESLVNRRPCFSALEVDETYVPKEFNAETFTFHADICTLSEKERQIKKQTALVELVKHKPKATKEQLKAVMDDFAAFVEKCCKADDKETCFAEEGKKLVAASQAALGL

C[C@@H](O)[C@@H]1NC(=O)[C@H](CCCCN)NC(=O)[C@@H](Cc2ccc(NC(N)=O)cc2)NC(=O)[C@H](Cc2ccc(NC(=O)[C@@H]3CC(=O)NC(=O)N3)cc2)NC(=O)[C@H](NC(=O)[C@H](Cc2ccc(Cl)cc2)NC(=O)[C@H](CCCCNC(=O)CCCc2ccc(I)cc2)NC(=O)CN2CCN(CC(=O)O)CCN(CC(=O)O)CCN(CC(=O)O)CC2)CSSC[C@@H](C(=O)N[C@H](Cc2ccc(O)cc2)C(N)=O)NC1=O [[^177Lu]Lu-8a, metal not drawn] ({DOTA}-K(Butanoyl(4-(4-I-phenyl)))[Phe(4-Cl)][dC][Phe(4-NH2)](Dihydroorotyl(S))[dPhe(4-NHCONH2)]KTC[dY]-NH2; disulfide 3-8)
SPECT quantification, kidneys (K), 4 h [1]: 7.7 ± 0.9 % ID/mL | SPECT quantification, kidneys (K), 24 h [1]: 10.1 ± 0.8 % ID/mL | SPECT quantification, kidneys (K), 48 h [1]: 10.1 ± 0.3 % ID/mL | SPECT quantification, kidneys (K), 72 h [1]: 8.9 ± 0.2 % ID/mL | tissue uptake per volume at 4 h [2]: 3.7 ± 0.9 %ID/mL | tissue uptake per volume at 24 h [2]: 4.9 ± 0.5 %ID/mL | tissue uptake per volume at 48 h [2]: 5.7 ± 0.6 %ID/mL | tissue uptake per volume at 72 h [2]: 4.9 ± 0.3 %ID/mL | tissue uptake at 4 h ([3]; blood): 21.3 ± 1.1 %ID/g | tissue uptake at 24 h ([3]; blood): 18.1 ± 4.2 %ID/g | tissue uptake at 48 h ([3]; blood): 12.9 ± 1.2 %ID/g | tissue uptake at 72 h ([3]; blood): 8.6 ± 0.5 %ID/g | tissue uptake at 4 h ([3]; bone marrow): 1.2 ± 2 %ID/g | tissue uptake at 4 h ([3]; bone): 1.3 ± 1.8 %ID/g | tissue uptake at 24 h ([3]; bone): 1.5 ± 1.1 %ID/g | tissue uptake at 48 h ([3]; bone): 0.9 ± 0.4 %ID/g | tissue uptake at 72 h ([3]; bone): 1.2 ± 1 %ID/g | tissue uptake at 4 h ([3]; heart): 7.6 ± 1.2 %ID/g | tissue uptake at 24 h ([3]; heart): 5.1 ± 0.7 %ID/g | tissue uptake at 48 h ([3]; heart): 4.8 ± 0.5 %ID/g | tissue uptake at 72 h ([3]; heart): 3.9 ± 0.7 %ID/g | tissue uptake at 4 h ([3]; intestine): 2.5 ± 0.2 %ID/g | tissue uptake at 24 h ([3]; intestine): 1.7 ± 0.1 %ID/g | tissue uptake at 48 h ([3]; intestine): 1.4 ± 0.1 %ID/g | tissue uptake at 72 h ([3]; intestine): 1.1 %ID/g | tissue uptake at 4 h ([3]; kidney): 9.6 ± 1.2 %ID/g | tissue uptake at 24 h ([3]; kidney): 18.4 ± 1.9 %ID/g | tissue uptake at 48 h ([3]; kidney): 22.6 ± 1.9 %ID/g | tissue uptake at 72 h ([3]; kidney): 21.6 ± 1.4 %ID/g | tissue uptake at 4 h ([3]; liver): 4.6 ± 1.2 %ID/g | tissue uptake at 24 h ([3]; liver): 3.7 ± 0.2 %ID/g | tissue uptake at 48 h ([3]; liver): 3.6 ± 0.2 %ID/g | tissue uptake at 72 h ([3]; liver): 2.9 ± 0.3 %ID/g | tissue uptake at 4 h ([3]; lung): 9.9 ± 2.9 %ID/g | tissue uptake at 24 h ([3]; lung): 7.5 ± 0.6 %ID/g | tissue uptake at 48 h ([3]; lung): 7.2 ± 0.3 %ID/g | tissue uptake at 72 h ([3]; lung): 6 ± 0.5 %ID/g | tissue uptake at 4 h ([3]; muscle): 0.8 ± 1.1 %ID/g | tissue uptake at 24 h ([3]; muscle): 1.1 ± 0.1 %ID/g | tissue uptake at 48 h ([3]; muscle): 1.2 ± 0.5 %ID/g | tissue uptake at 72 h ([3]; muscle): 0.8 ± 0.1 %ID/g | tissue uptake at 4 h ([3]; pancreas): 7.2 ± 0.3 %ID/g | tissue uptake at 24 h ([3]; pancreas): 6.6 ± 0.3 %ID/g | tissue uptake at 48 h ([3]; pancreas): 6.3 ± 0.7 %ID/g | tissue uptake at 72 h ([3]; pancreas): 5.3 ± 1.2 %ID/g | tissue uptake at 4 h ([3]; skin): 5.9 ± 1.1 %ID/g | tissue uptake at 24 h ([3]; skin): 5.4 ± 0.9 %ID/g | tissue uptake at 48 h ([3]; skin): 6.3 ± 1.6 %ID/g | tissue uptake at 72 h ([3]; skin): 4.8 ± 0.3 %ID/g | tissue uptake at 4 h ([3]; spleen): 3.2 ± 0.7 %ID/g | tissue uptake at 24 h ([3]; spleen): 3.8 ± 0.4 %ID/g | tissue uptake at 48 h ([3]; spleen): 5.8 ± 0.6 %ID/g | tissue uptake at 72 h ([3]; spleen): 5.4 ± 0.2 %ID/g | tissue uptake at 4 h ([3]; stomach): 3.8 ± 0.4 %ID/g | tissue uptake at 24 h ([3]; stomach): 3.1 ± 1.4 %ID/g | tissue uptake at 48 h ([3]; stomach): 3.3 ± 1.2 %ID/g | tissue uptake at 72 h ([3]; stomach): 3 ± 0.5 %ID/g | tissue uptake at 4 h ([3]; tumor): 4.1 ± 0.5 %ID/g | tissue uptake at 24 h ([3]; tumor): 6.5 ± 0.2 %ID/g | tissue uptake at 48 h ([3]; tumor): 7.3 ± 0.4 %ID/g | tissue uptake at 72 h ([3]; tumor): 7.3 ± 0.9 %ID/g | logD [4]: -1.6 ± 0.03 | Stability in PBS (%) 1 h [5]: 96.5% | Stability in PBS (%) 4 h [5]: 96.5% | Stability in PBS (%) 24 h [5]: 97.2% | remaining at 1 h [6]: 97.3% | remaining at 4 h [6]: 98.4% | remaining at 24 h [6]: 98.5% | Protein-Bound Fraction (%) [7]: 89.5 ± 0.8%

COc1ccc(CCCC(=O)NCCCC[C@H](NC(=O)CN2CCN(CC(=O)O)CCN(CC(=O)O)CCN(CC(=O)O)CC2)C(=O)N[C@@H](Cc2ccc(Cl)cc2)C(=O)N[C@@H]2CSSC[C@@H](C(=O)N[C@H](Cc3ccc(O)cc3)C(N)=O)NC(=O)[C@H]([C@@H](C)O)NC(=O)[C@H](CCCCN)NC(=O)[C@@H](Cc3ccc(NC(N)=O)cc3)NC(=O)[C@H](Cc3ccc(NC(=O)[C@@H]4CC(=O)NC(=O)N4)cc3)NC2=O)cc1 [[^177Lu]Lu-8b, metal not drawn] ({DOTA}-K(Butanoyl(4-(4-MeO-phenyl)))[Phe(4-Cl)][dC][Phe(4-NH2)](Dihydroorotyl(S))[dPhe(4-NHCONH2)]KTC[dY]-NH2; disulfide 3-8)
SPECT quantification, kidneys (K), 4 h [1]: 14.8 ± 1.2 % ID/mL | SPECT quantification, kidneys (K), 24 h [1]: 7.5 ± 0.4 % ID/mL | SPECT quantification, kidneys (K), 48 h [1]: 4.3 ± 0.3 % ID/mL | SPECT quantification, kidneys (K), 72 h [1]: 3.1 ± 0.5 % ID/mL | tissue uptake per volume at 4 h [2]: 2.7 ± 0.2 %ID/mL | tissue uptake per volume at 24 h [2]: 1 ± 0.1 %ID/mL | tissue uptake per volume at 48 h [2]: 0.8 ± 0.1 %ID/mL | tissue uptake per volume at 72 h [2]: 0.6 ± 0.1 %ID/mL | logD [4]: -2.07 ± 0.02 | Stability in PBS (%) 1 h [5]: 97.1% | Stability in PBS (%) 4 h [5]: 96.4% | Stability in PBS (%) 24 h [5]: 95.4% | remaining at 1 h [6]: 98% | remaining at 4 h [6]: 97.9% | remaining at 24 h [6]: 98.5% | Protein-Bound Fraction (%) [7]: 56.3 ± 1.4%

From publication PMC9503898, “Synthesis and Evaluation of Two Long-Acting SSTR2 Antagonists for Radionuclide Therapy of Neuroendocrine Tumors” (Pharmaceuticals, 2022)
